Laboratory results: US20110136751A1, “Use of Polyphenols in the Treatment of Cancer” (Green Molecular, priority 2009, published 2011)
pIC50: −log10 of the molar value.

Tests used:
caspase 3 = assay: Caspase-3 activity (Apo-ONE Homogeneous Caspase-3 Assay); format: cell-based, human; details: within a 24 h-period
Method: Aspase-3 activity was measured with Apo-ONE® Homogeneous Caspase-3 Assay (Promega). The assay was configured for 96 well plates (5000 cells/well). Cells were plated for 24 h. Capase-3/7 activities were evaluated 24 h after polyphenols addition. Fluorescence (a.u.) was expressed as relative index where control is 1. Results are expressed as relative proliferation index±SD (n=3).
(§1) The effects of pterostilbene and resveratrol on cell cycle were tested. […] Both DNA synthesis and tubulin polymerization were seriously affected.

[1] = test system: Human melanoma (A375), breast cancer (MCF7), lung cancer (A549), and colon cancer (HT29) cell lines; assay: Cell inhibition study (cell counting); format: cell-based; details: for cell number (relative proliferation index): 0-100 μM, FIGS. 8A through 8D; for pIC50: Homo sapiens, all cell lines (A375, MCF7, A549, HT29)
Method: (§2) Cancer cells (0.2×10^6 cells/well) were seeded in six well-plates and, 24 h later, were treated with PTER or RES (0-100 mM) (ethanol as solvent vehicle was at a conc. of 0.3%). Cell growth was analyzed using the Countess® Automated Cell Counter (Invitrogen). Results were expressed as relative proliferation index±SD (n=4) where control is 100.
(§3) The aim of this study was to determine whether pterostilbene causes cytotoxicity in human tumors at concentrations that are reliable under in vivo conditions; and, to identify which death-related molecular mechanisms may be activated by the compound. Human melanoma (A375), breast cancer (MCF7), lung cancer (A549), and colon cancer (HT29) cell lines were used in this set of experiments. Pterostilbene and resveratrol were used in a μM range, between 10 μM (below the IC50 for all cell lines) and 200 μM (an unachievable in vivo concentration). Cell cycle and apoptosis induction were determined by flow cytometry.
as §2, with “Cells from the cancer lines” for “Cancer cells”, “pterostilbene” for “PTER”, “resveratrol” for “RES”, “μM)” for “mM)”

[2] = test system: Human melanoma (A375), breast cancer (MCF7), lung cancer (A549), and colon cancer (HT29) cell lines; assay: Cell cycle study (flow cytometry); format: cell-based; details: treated for 24 h; FIG. 9
Method: Cancer cells (0.2×10^6 cells/well) were seeded in six well-plates and, 24 h later, were treated for 24 h with different concentrations ([…]) of PTER or ReES. Cells were trypsinized and pelleted at 1000×g for 2 min. Cells were resuspended in PBS. Ethanol was added up to a final 70% conc. The DNA cellular content was analyzed by flow cytometry (10000 cell events were collected per sample). Results are expressed as % of total cells±SD (n=3).
as §3, §1

[3] = test system: Human melanoma (A375), breast cancer (MCF7), lung cancer (A549), and colon cancer (HT29) cell lines; assay: Necrosis induction (LDH released to the extracellular medium); format: cell-based; details: with increasing concentration; FIG. 10
Method: Necrosis induction was evaluated by measuring lactate dehydrogenase (LDH) activity released to the extracellular medium. Cells were exposed to polyphenols for 24-72 h. Results are expressed as relative LDH activity±SD (n=3) where control is 100.
The tumor cell death induced by pterostilbene appears to be partially independent of caspase activity.

HT-1080 = assay: IC50 on cell viability, Cell Counting Kit-8; format: cell-based; details: Homo sapiens; code 9, HT-1080, Fibrosarcoma; cell viability 120 h after administration
Method: (§4) A panel of 36 human cell lines were first tested in terms of population doubling time and growth curves to determine the conditions for further assays. The cells were also tested to determine the dose of radiation that produces 50% cell viability (D50). […] Cell viability was determined 120 h after the administration of the compounds using the Cell Counting Kit-8 (Dojindo Molecular Technologies, Inc, Rockville, Md.). In the experiments, 0.1% SDS and 1% DMSO were used as positive and negative controls, respectively. Final concentrations of the compounds used in the experiments are listed below in Table 5: […]

T-47D = assay: IC50 on cell viability, Cell Counting Kit-8; format: cell-based; details: Homo sapiens, T47D; code 4, T-47D, Breast Carcinoma; cell viability 120 h after administration
Method: as §4

MCF-7 = assay: IC50 on cell viability, Cell Counting Kit-8; format: cell-based; details: Homo sapiens, MCF7; code 2, MCF-7, Breast Adenocarcinoma; cell viability 120 h after administration
Method: as §4

HPAF-II = assay: IC50 on cell viability, Cell Counting Kit-8; format: cell-based; details: Homo sapiens; code 32, HPAF-II, Pancreas Adenocarcinoma; cell viability 120 h after administration
Method: as §4

HCT 116 = assay: IC50 on cell viability, Cell Counting Kit-8; format: cell-based; details: Homo sapiens; code 6, HCT 116, Colorectal Carcinoma; cell viability 120 h after administration
Method: as §4

Panc 10 05 = assay: IC50 on cell viability, Cell Counting Kit-8; format: cell-based; details: Homo sapiens, Panc1005; code 33, Panc 10 05, Pancreas Adenocarcinoma; cell viability 120 h after administration
Method: as §4

[4] = test system: Human melanoma (A375), breast cancer (MCF7), lung cancer (A549), and colon cancer (HT29) cell lines; assay: Apoptosis induction (flow cytometry); format: cell-based; details: with increasing concentration
Method: as §3, with “Pterostilbene and resveratrol were used in a μM range, between 10 μM (below the IC50 for all cell lines) and 200 μM (an unachievable in vivo concentration).” left out, “cytometry. […] The tumor cell death induced by pterostilbene appears to be partially independent of caspase activity.” for “cytometry.”

caspase 3 activation (caspase 3) | pIC50 [1] | pIC50 (HT-1080) | pIC50 (T-47D) | pIC50 (MCF-7) | pIC50 (HCT 116) | pIC50 (Panc 10 05) | Structure (SMILES) | inhibitory effect on human tumor cell growth versus resveratrol [1] | cell number (relative proliferation index) [1] | cell cycle [2] | Necrosis (LDH activity released to the extracellular medium) [3] | pIC50 (HPAF-II) | apoptosis [4]
no caspase 3 activation was detected | < 5.00 | 4.75 | 4.46 | 4.40 | 4.34 | 4.33 | COc1cc(/C=C/c2ccc(O)cc2)cc(OC)c1 [t-PTER, trans-3,5-dimethoxy-4′-hydroxystilbene] | stronger inhibitory effect | reduced cell number in a concentration- and time-dependent manner | arrested in S phase | progressively activated | 4.26 | progressively activated
no caspase 3 activation was detected | < 5.00 | 4.99 | 4.59 | 4.30 | 4.50 | 4.62 | Oc1ccc(/C=C/c2cc(O)cc(O)c2)cc1 [RI, trans-3,5,4′-trihydroxystilbene, reference compound] |  | reduced cell number in a concentration- and time-dependent manner | arrested in S phase | progressively activated | 4.07 | progressively activated
 |  | 5.26 | 4.97 | 4.70 | 4.24 | 4.64 | O=c1c(O)c(-c2ccc(O)c(O)c2)oc2cc(O)cc(O)c12 [QUER, quercetin] |  |  |  |  | 4.69 | 
